Experimental findings from ChEMBL document CHEMBL1201862, “PubChem BioAssay data set” (2004) are described below.

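Five compound concentrations were applied to cells in 96-well plates for 48 hours; endpoints were derived by simple linear interpolation of the resulting dose-response curve. At the GI50, growth is halved.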 Active and inactive are the calls of the source. No stated cut-off is given here; in the data, active = GI50 up to about 1.1 µM and inactive = higher. Starred links: 1 amine or outer side, 2 acyl side, 3 side chain; linkers in the order of their positions; H or OH if unused. Positions of bridges follow the written chain, without caps; N, C: chain ends. Non-standard residues stand in square brackets, D forms with d. Residues, ends and D or L forms follow the SMILES beside them. ξ: configuration not given here. X11 = CCC(C)C(N[*:1])C(O)CC(=O)O[C@H](C(=O)C(C)C(=O)[*:2])C(C)C; X10 = O=C([C@@H]1CC(O)CN1[*:1])[*:2]; NMeY = CN[C@@H](Cc1ccc(O)cc1)C(=O)O; ξNMeL = CNC(CC(C)C)C(=O)O; ξT = CC(O)C(N)C(=O)O A value given as a limit tells only on which side of the number the result lay.

Test systems include DMS-114; DMS-273; KM-20L2; M19-MEL; XF498; MDA-MB-435; LXFL 529; DLD-1.
What all share (test): NCI anticancer screen, dose series, 48 h

For the molecule `CCCSc1nc(COC(=O)NC)c(COC(=O)NC)n1C`, the GI50 is 38.7 µM (inactive) in the test with DMS-114; > 95.5 µM (inactive) in the test on DMS-273; > 100 µM (inactive) in the test with KM-20L2; > 95.1 µM (inactive) in the test on M19-MEL; > 100 µM (inactive) with XF498.
Consider `O=C(CCc1ccc(O)c(O)c1)OCCc1ccccc1`, for which the GI50 with MDA-MB-435 was 20.8 µM (inactive).
The same measure, in the same setting: to `CC12CCC(O)CC1CCC1C2CCC2(C)C(C(=O)CC(O)C(F)(F)F)CCC12` (stereo not drawn) belongs > 75 µM (inactive); to `CC(=O)c1nccc2c1c(C)nc1ccccc12`, > 100 µM (inactive).
On to `Cc1cc(O)nc(NN2C(Cl)C(=O)C2c2cccc([N+](=O)[O-])c2)n1` (stereo not drawn), for which the GI50 in the test with DMS-114 was 21.8 µM (inactive); in the test on DMS-273, 15.6 µM (inactive); in the test on KM-20L2, 27.3 µM (inactive); with LXFL 529, 16 µM (inactive); in the test with M19-MEL, 19.5 µM (inactive).
With `CSC1=Nc2ccccc2N(C)c2c1c(-c1ccccc1)nn2C`, the GI50 in the test on MDA-MB-435 was 28.4 µM (inactive).
Take `CCOP(=O)(OCC)C(Cc1c[nH]c2ccccc12)C(=O)O` (stereo not drawn): the GI50 with MDA-MB-435 is > 100 µM (inactive).
On to `Cc1cc(S(=O)(=O)Nc2nncn2-c2ccc(Cl)cc2)c(S)cc1Cl`, for which the GI50 in the test on MDA-MB-435 was > 10 µM (inactive).
Same read-out and setting: with `CC(NC(=O)c1ccc(OP(=O)(OCC2=CC(=O)c3ccccc3C2=O)N(C)CCCCCl)cc1)c1ccc(OCC2CCCCC2)c(C(N)=O)c1` (stereo not drawn) the figure was 2.47 µM (inactive); with `CCCCCCNC(=O)C1=C(C)NC(C)=C(C(=O)NCCCCCC)C1`, 64.7 µM (inactive).
`COc1ccc(CCC2NCCc3cc(OC)c(OC)cc32)cc1` (stereo not drawn): the GI50 in the test with DLD-1, with KM-20L2, with LXFL 529 and with XF498 was > 100 µM (inactive) throughout.
`CCOC(=O)c1nc2ccc(C(F)(F)F)cc2nc1NCc1ccc(Cl)c(Cl)c1`: the GI50 with MDA-MB-435 is 23.6 µM (inactive).
The same measure, in the same setting: to `CN(CCN(C)CCN(C)C(=O)Cc1ccc(Cl)c(Cl)c1)CCN1CCCC1` belongs 5.68 µM (inactive); to `O=C1CSC(c2ccc(Cl)cc2Cl)N1c1ccc(Oc2ccc(Cl)cc2)c(Cl)c1` (stereo not drawn), 12.6 µM (inactive).
As for `COC1=C(C(c2cc(OC)c(OC)c(OC)c2)c2cc3c(cc2OC)OCO3)C(=O)OC1` (stereo not drawn), the GI50 in the test with MDA-MB-435 was 4.66 µM (inactive).
On the same count and under the same terms, with `O=C(CC(=O)Nc1ccc(C(=O)O)cc1)Nc1ccc(C(=O)O)cc1` the figure was > 100 µM (inactive); with `CC(=O)OCCCCn1cnc2c(Cl)nc(Nc3ccccc3)nc21`, > 100 µM (inactive).
On to `CCOC(=O)c1ccc(C(=O)C(C(C)=O)C(=O)OC(C)(C)C)[nH]1` (stereo not drawn), for which the GI50 in the test on MDA-MB-435 was > 100 µM (inactive).
For the molecule `N#CN=C(N(Cc1ccccc1)Cc1ccccc1)N(Cc1ccccc1)Cc1ccccc1`, the GI50 in the test with DLD-1 is 5.18 µM (inactive); with DMS-114, 4.85 µM (inactive); with KM-20L2 it was 16.4 µM (inactive); with LXFL 529, 3.89 µM (inactive); in the test with M19-MEL, 25.5 µM (inactive); in the test with XF498, 12.5 µM (inactive).
For the molecule `O=C1c2sc(-c3ccc(F)cc3)cc2-n2cccc21`, in the test with MDA-MB-435, the GI50 was 31.4 µM (inactive).
As for `O=C1/C(=C/c2ccccc2)CN(C(=O)C(Cl)(Cl)Cl)C/C1=C\c1ccccc1`, the GI50 in the test on DLD-1 was 1.96 µM (inactive); in the test on DMS-114, 1.6 µM (inactive); in the test on DMS-273, 1.06 µM (active); with KM-20L2, 2.16 µM (inactive); with LXFL 529, 1.59 µM (inactive); with M19-MEL, 1.33 µM (inactive).
As to `O=[N+]([O-])/C=C/c1cn(CCCCCCCCn2cc(/C=C/[N+](=O)[O-])c3ccccc32)c2ccccc12`, the GI50 in the test on MDA-MB-435 is 0.327 µM (active).
Turning to `CC(C)(C)c1ccc(-n2c3nc(=O)n(-c4ccccc4CO)c(=O)c-3cc3ccccc32)cc1`, the GI50 with MDA-MB-435 was 36.1 µM (inactive).
Still for that read-out and setting: to `Cc1c2c(n(CCN(C)C)c1C)NN=C(C#N)S2(=O)=O` belongs > 100 µM (inactive).
`O=C(c1cccs1)N(C(=S)N1CCN(c2ccccc2)CC1)c1ccccc1`: the GI50 in the test with DLD-1, in the test on DMS-114, in the test with DMS-273, with KM-20L2, with LXFL 529 and in the test with M19-MEL was > 100 µM (inactive) each time.
`Oc1ccccc1C1C=C(c2ccccc2)NC(N2CCCCC2)=C1c1nc2ccccc2[nH]1` (stereo not drawn): the GI50 with MDA-MB-435 is 15.6 µM (inactive).
The same measure, in the same setting: to `CCN(CC)c1ccc2cc(C(=O)Nc3nc(C45CC6CC(CC(C6)C4)C5)cs3)c(=O)oc2c1` belongs > 100 µM (inactive).
On to `O=c1[nH]c2cc(C(F)(F)F)ccc2nc1C(F)(F)F`, for which the GI50 with MDA-MB-435 was 34 µM (inactive).
On to `Cc1cccc(C)c1NC(=O)C(=O)C1C(=O)N(c2ccccc2)N=C1N` (stereo not drawn), for which the GI50 with DLD-1, in the test with DMS-114, with DMS-273, in the test on KM-20L2, in the test with LXFL 529 and in the test on M19-MEL was > 100 µM (inactive) each time.
As to `N#Cc1c(Nc2ccc(F)cc2)[n+]([O-])c2ccc(Cl)cc2[n+]1[O-]`, the GI50 with MDA-MB-435 is 4.04 µM (inactive).
In the case of `O=c1cc(NNc2ccccc2)[nH]c(=O)[nH]1`, the GI50 in the test with MDA-MB-435 is 19 µM (inactive).
Consider `Fc1cccc(CSc2ncnc3c2ncn3C2CCCS2)c1` (stereo not drawn), for which the GI50 in the test on MDA-MB-435 is 18.5 µM (inactive).
On the same count and under the same terms, to `CC(C)(/N=N/C(C)(C)C(=O)NCCO)C(=O)NCCO` belongs > 100 µM (inactive).
Take `CN(C)C(=S)SCC(N)=O`: the GI50 in the test on MDA-MB-435 is > 100 µM (inactive).
Still for that read-out and setting: to `COC1CC(=O)C2C(=O)N(c3ccccc3)C(=O)C23C(C(=O)c2ccccc2)=C(C)NC13O` (stereo not drawn) belongs 14.5 µM (inactive).
For the molecule `Cc1ccc([N+](=O)[O-])cc1S(=O)(=O)Nc1ccc(C2=NN(c3ccc([N+](=O)[O-])cc3[N+](=O)[O-])C(c3ccccc3)C2)cc1` (stereo not drawn), the GI50 with MDA-MB-435 is 19.3 µM (inactive).
As for `COC(=O)C1CCC(=O)N1C(c1ccc2c(c1)OCO2)c1cc(OC)c(OC)c(OC)c1` (stereo not drawn), the GI50 in the test with MDA-MB-435 was > 100 µM (inactive).
As for `CCOC(=O)c1c(-c2ccccc2)c(C(OC(c2ccccc2)c2c(-c3ccccc3)c(C(=O)OCC)n3ccccc23)c2ccccc2)c2ccccn12` (stereo not drawn), the GI50 in the test with DLD-1, with DMS-273, with KM-20L2, in the test on LXFL 529 and in the test with XF498 was > 100 µM (inactive) throughout.
For the molecule `CCOC(=O)c1nc2ccccc2n(CC)c1=O`, the GI50 with MDA-MB-435 was > 100 µM (inactive).
On the same count and under the same terms, to `O=C1OC(c2ccc(O)cc2)(c2ccc(O)cc2)c2ccc(Cl)c3cccc1c23.O=C1OC(c2ccc(O)cc2)(c2ccc(O)cc2)c2cccc3c(Cl)ccc1c23` belongs 9.46 µM (inactive).
For the molecule `Cc1ncc([N+](=O)[O-])n1CC[N+](C)([O-])CCCCn1ccnc1[N+](=O)[O-]` (stereo not drawn), the GI50 in the test on MDA-MB-435 was > 100 µM (inactive).
The same measure, in the same setting: to `CCC(C)C1NC(=O)C(NC(=O)C(CC(C)C)N(C)C(=O)[C@@H]2CC(O)CN2)C(C)OC(=O)[C@H](Cc2ccc(OC)cc2)N(C)C(=O)[C@@H]2CCCN2C(=O)[C@H](CC(C)C)NC(=O)C(C)C(=O)[C@H](C(C)C)OC(=O)CC1O` (stereo partly drawn) (H-[X10][ξNMeL][ξT][X11]LP[NMeY](Me); ester 3-C) belongs 0.0102 µM (active).
Consider `C[C@]12CC[C@H](O[C@@H]3O[C@H](CO[C@@H]4O[C@H](CO)[C@@H](O)[C@H](O)[C@H]4O)[C@@H](O)[C@H](O)[C@H]3O)C[C@@H]1CC[C@@H]1[C@@H]2CC[C@]2(C)[C@@H](C3=CC(=O)OC3)CC[C@]12O` [UZARIN], for which the GI50 in the test on MDA-MB-435 is 31.8 µM (inactive).
